In PubChem BioAssay (NCI):
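All cell lines were grown in 96-well plates and treated with compound for 48 hours. The concentration for 50% growth inhibition is given as GI50. TGI: concentration producing complete growth inhibition.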

Columns and labels:
Experiment in all cases: DTP human tumour cell line panel, 48 h
SK-MEL-5 melanoma = test system: SK-MEL-5 melanoma
NCI-H226 lung = test system: NCI-H226 lung
SF-268 CNS = test system: SF-268 CNS
SNB-75 CNS = test system: SNB-75 CNS
OVCAR-5 ovarian = test system: OVCAR-5 ovarian
SK-MEL-2 melanoma = test system: SK-MEL-2 melanoma
UO-31 renal = test system: UO-31 renal
IGROV1 ovarian = test system: IGROV1 ovarian
M14 melanoma = test system: M14 melanoma
OVCAR-4 ovarian = test system: OVCAR-4 ovarian
ACHN renal = test system: ACHN renal
HT29 colon = test system: HT29 colon
SNB-19 CNS = test system: SNB-19 CNS
NCI-H460 lung = test system: NCI-H460 lung
UACC-62 melanoma = test system: UACC-62 melanoma
K-562 leukemia = test system: K-562 leukemia
SR leukemia = test system: SR leukemia
MCF7 breast = test system: MCF7 breast
CCRF-CEM leukemia = test system: CCRF-CEM leukemia
BT-549 breast = test system: BT-549 breast
CAKI-1 renal = test system: CAKI-1 renal
MDA-MB-231 breast = test system: MDA-MB-231 breast
NCI/ADR-RES ovarian = test system: NCI/ADR-RES ovarian
786-0 renal = test system: 786-0 renal
SW-620 colon = test system: SW-620 colon
TK-10 renal = test system: TK-10 renal
EKVX NSCLC = test system: EKVX NSCLC
DU-145 prostate = test system: DU-145 prostate
KM12 colon = test system: KM12 colon
LOX IMVI melanoma = test system: LOX IMVI melanoma
U251 CNS = test system: U251 CNS
NCI-H23 lung = test system: NCI-H23 lung
HOP-92 NSCLC = test system: HOP-92 NSCLC
HCC-2998 colon = test system: HCC-2998 colon
A498 renal = test system: A498 renal
HS 578T breast = test system: HS 578T breast
SK-OV-3 ovarian = test system: SK-OV-3 ovarian
PC-3 prostate = test system: PC-3 prostate
SK-MEL-28 melanoma = test system: SK-MEL-28 melanoma
OVCAR-8 ovarian = test system: OVCAR-8 ovarian
RXF 393 renal = test system: RXF 393 renal
NCI-H522 lung = test system: NCI-H522 lung
RPMI-8226 leukemia = test system: RPMI-8226 leukemia
SF-539 CNS = test system: SF-539 CNS
SN12C renal = test system: SN12C renal
UACC-257 melanoma = test system: UACC-257 melanoma
MOLT-4 leukemia = test system: MOLT-4 leukemia
MDA-MB-435 = test system: MDA-MB-435
A549 NSCLC = test system: A549 NSCLC
HOP-62 NSCLC = test system: HOP-62 NSCLC
MALME-3M melanoma = test system: MALME-3M melanoma
HL-60(TB) leukemia = test system: HL-60(TB) leukemia
T-47D breast = test system: T-47D breast
SF-295 CNS = test system: SF-295 CNS
COLO 205 colon = test system: COLO 205 colon
HCT-15 colon = test system: HCT-15 colon

Nc1ccccc1NC(=O)c1ccc(NC(=O)C/C=C/c2cccnc2)cn1
GI50 (SK-MEL-5 melanoma): 0.958 µM
TGI (SK-MEL-5 melanoma): 2.37 µM
GI50 (NCI-H226 lung): 1.08 µM
TGI (NCI-H226 lung): 19.6 µM
GI50 (SF-268 CNS): 1.3 µM
TGI (SF-268 CNS): > 40 µM
GI50 (SNB-75 CNS): 0.674 µM
TGI (SNB-75 CNS): > 47.6 µM
GI50 (OVCAR-5 ovarian): 0.509 µM
TGI (OVCAR-5 ovarian): > 50 µM
GI50 (SK-MEL-2 melanoma): 0.816 µM
TGI (SK-MEL-2 melanoma): 5.09 µM
GI50 (UO-31 renal): 0.702 µM
TGI (UO-31 renal): 16.6 µM
GI50 (IGROV1 ovarian): 0.601 µM
TGI (IGROV1 ovarian): > 50 µM
GI50 (M14 melanoma): 0.704 µM
TGI (M14 melanoma): 11.4 µM
GI50 (OVCAR-4 ovarian): 1.99 µM
TGI (OVCAR-4 ovarian): > 50 µM
GI50 (ACHN renal): 1.52 µM
TGI (ACHN renal): > 50 µM
GI50 (HT29 colon): 0.531 µM
TGI (HT29 colon): > 33.9 µM
GI50 (SNB-19 CNS): 1.72 µM
TGI (SNB-19 CNS): > 50 µM
GI50 (NCI-H460 lung): 0.745 µM
TGI (NCI-H460 lung): > 37.4 µM
GI50 (UACC-62 melanoma): 0.745 µM
TGI (UACC-62 melanoma): 3.6 µM
GI50 (K-562 leukemia): 0.213 µM
TGI (K-562 leukemia): > 50 µM
GI50 (SR leukemia): 0.435 µM
TGI (SR leukemia): > 50 µM
GI50 (MCF7 breast): 0.806 µM
TGI (MCF7 breast): > 13.5 µM
GI50 (CCRF-CEM leukemia): 0.216 µM
TGI (CCRF-CEM leukemia): > 50 µM
GI50 (BT-549 breast): 0.777 µM
TGI (BT-549 breast): 3.73 µM
GI50 (CAKI-1 renal): 1.68 µM
TGI (CAKI-1 renal): 13 µM
GI50 (MDA-MB-231 breast): 3.35 µM
TGI (MDA-MB-231 breast): > 50 µM
GI50 (NCI/ADR-RES ovarian): 1.16 µM
TGI (NCI/ADR-RES ovarian): > 50 µM
GI50 (786-0 renal): 1.52 µM
TGI (786-0 renal): 8.17 µM
GI50 (SW-620 colon): 0.188 µM
TGI (SW-620 colon): > 14.8 µM
GI50 (TK-10 renal): 0.0583 µM
TGI (TK-10 renal): 1.8 µM
GI50 (EKVX NSCLC): 2.38 µM
TGI (EKVX NSCLC): > 50 µM
GI50 (DU-145 prostate): 0.544 µM
TGI (DU-145 prostate): 2.06 µM
GI50 (KM12 colon): 1.43 µM
TGI (KM12 colon): > 20.5 µM
GI50 (LOX IMVI melanoma): 0.286 µM
TGI (LOX IMVI melanoma): 3.95 µM
GI50 (U251 CNS): 0.732 µM
TGI (U251 CNS): > 23.6 µM
GI50 (NCI-H23 lung): 1.45 µM
TGI (NCI-H23 lung): > 24.9 µM
GI50 (HOP-92 NSCLC): 0.0953 µM
TGI (HOP-92 NSCLC): 1.26 µM
GI50 (HCC-2998 colon): 0.801 µM
TGI (HCC-2998 colon): 4.26 µM
GI50 (A498 renal): 0.347 µM
TGI (A498 renal): 1.62 µM
GI50 (HS 578T breast): 0.826 µM
TGI (HS 578T breast): 37.1 µM
GI50 (SK-OV-3 ovarian): 1.67 µM
TGI (SK-OV-3 ovarian): > 27.4 µM
GI50 (PC-3 prostate): 0.806 µM
TGI (PC-3 prostate): > 50 µM
GI50 (SK-MEL-28 melanoma): 0.866 µM
TGI (SK-MEL-28 melanoma): 2.65 µM
GI50 (OVCAR-8 ovarian): 0.0839 µM
TGI (OVCAR-8 ovarian): > 50 µM
GI50 (RXF 393 renal): 0.864 µM
TGI (RXF 393 renal): 5.9 µM
GI50 (NCI-H522 lung): 0.334 µM
TGI (NCI-H522 lung): 3.37 µM
GI50 (RPMI-8226 leukemia): 0.336 µM
TGI (RPMI-8226 leukemia): > 10.2 µM
GI50 (SF-539 CNS): 0.148 µM
TGI (SF-539 CNS): 3.07 µM
GI50 (SN12C renal): 0.329 µM
TGI (SN12C renal): > 50 µM
GI50 (UACC-257 melanoma): 0.798 µM
TGI (UACC-257 melanoma): > 13.3 µM
GI50 (MOLT-4 leukemia): 0.724 µM
TGI (MOLT-4 leukemia): > 50 µM
GI50 (MDA-MB-435): 1.1 µM
TGI (MDA-MB-435): > 16 µM
GI50 (A549 NSCLC): 2.04 µM
TGI (A549 NSCLC): > 50 µM
GI50 (HOP-62 NSCLC): 1.11 µM
TGI (HOP-62 NSCLC): > 24.9 µM
GI50 (MALME-3M melanoma): 0.19 µM
GI50 (HL-60(TB) leukemia): 0.284 µM
TGI (HL-60(TB) leukemia): > 29.4 µM
GI50 (T-47D breast): 0.279 µM
TGI (T-47D breast): > 13.7 µM
GI50 (SF-295 CNS): 1.4 µM
TGI (SF-295 CNS): 8.28 µM
GI50 (COLO 205 colon): 0.445 µM
TGI (COLO 205 colon): 2.39 µM
GI50 (HCT-15 colon): 0.523 µM
TGI (HCT-15 colon): > 50 µM
